Read-outs that look alike come from different tables or passages of the source.

Data set [1] relates to HCV infectious virus J399EM. The arrangement: method as in PMID 22445328. The settings on record: at 50 μM; previous results; cited from earlier work.
The target of data set [2] is HCV NS5B polymerase. On the set-up: method as in PMID 14695815, PMID 15481971, PMID 15149686. Particulars: HCV NS5B polymerase inhibition, Figures 1 and 2; cited from earlier work.
Data set [3] relates to HCV infectious virus J399EM. In words: Anti-HCV assay in authentic HCV infection/replication system (J399EM EGFP reporter virus) in Huh7.5.1 cells. It counts as cell-based, hepatitis C virus (JFH1-derived, genotype 2a). Particulars: for EC50: Hepatitis C virus, Huh-7.5.1, 72 h; for SI (selectivity index): ratio of CC50 to EC50, Huh7.5.1 cells. How it is done: (§1) The inhibition of HCV by all synthesized quercetin derivatives was evaluated following a previously reported procedure. All newly synthesized compounds were tested in authentic HCV infection/replication system in the human hepatoma cell lines Huh7.5.1 using mycophenolic acid (MPA) as control compound. The cytotoxicity effect of the test compounds was also evaluated in the same cell line by MTT method. Antiviral effect and cytotoxicity effect were summarized as EC50 and CC50 respectively, as well as the selective index (SI) which is the ratio of CC50 to EC50. The stability of quercetin-3-O-ester compounds were also tested in the same buffer as the antiviral activity assay at 37 °C and the hydrolysate was measured by HPLC.
The biological assays were performed following a previously reported procedure. The Huh7.5.1 cell line and the HCV infectious virus J399EM were kindly provided by Xin-Wen Chen, Wuhan Institute of Virology, Chinese Academy of Sciences. Huh7.5.1 cells were cultured in Dulbecco’s modified Eagle’s medium (DMEM) containing 10% (v/v) fetal bovine serum, 0.5 mg/mL G418, 100 IU/mL penicillin, and […].
J399EM is an infectious HCV virus derived from the JFH1 virus (genotype 2a) by insertion of enhanced green fluorescent protein (EGFP) into the HCV NS5A region. The establishment of the infectious J399EM HCV virus has been described previously. J399EM was propagated in Huh7.5.1 cells. Briefly, Huh7.5.1 cells were infected with J399EM at MOI = 0.1 and cultured for 4 days. Culture supernatant was collected and filtered through a 0.45 μm membrane and stored at −80 °C as virus stock. Virus titer was tested in Huh7.5.1 cells. Stocks were serially diluted, and the foci forming units (FFU) were determined as the number of fluorescent colonies formed in infected Huh7.5.1.
All the compounds were first dissolved in DMSO at 50 mM, and then diluted to various concentrations (50 μM, 25 μM, 12.5 μM, 6.3 μM and 3.1 μM). Approximately 1 × 10^4 Huh7.5.1 cells per well were plated in an opaque 96-well tissue culture plate (Costar 3904). The next day, the medium was replaced by J399EM virus at an MOI of 0.3. Four hours later, the virus inoculum was removed and medium containing different concentrations of compounds was added. After an additional 72 h of incubation, the culture medium was removed and the EGFP autofluorescence was measured by using a […] with excitation at 488 nm and emission at 516 nm. Compounds and controls were performed in duplicate and each experiment repeated independently at least twice.

Data set [4] is described as follows: Cell viability / cytotoxicity by MTT method. Type of data set: cell-based. The settings on record: human. How it is done: as §1
After the EGFP signal was read, cell viability was measured in the same plate by the MTT [3-(4,5-dimethylthiazol-2-yl)-2,5-diphenyltetrazolium bromide; Sigma-Aldrich, St. Louis, MO, USA] method. Briefly, MTT (1 mg/mL) was dissolved in PBS. Cell culture supernatants were removed and replaced with MTT and further cultured for 4 h; cells were then lysed with 10% sodium dodecyl sulfate (SDS), 50% N,N-dimethylformamide, pH 7.2. OD570 values were read. The percentage of cell death was calculated against the control well without compounds.

Take `O=c1c(O)c(-c2ccc(O)cc2)oc2cc(O)cc(O)c12` [kaempferol]: in data set [1], the “inhibition against HCV” value is 51.9%.
As for `N#Cc1c(Cl)cc(Cl)cc1COc1cccc(C(=O)/C=C(\O)C(=O)O)c1` [Compound 1b], the IC50 – broadly, the point on the concentration scale where inhibition reaches its midpoint – in data set [2] is 0.045 µM.
Regarding `Nc1ccc(C(=O)Oc2c(-c3ccc(O)c(O)c3)oc3cc(O)cc(O)c3c2=O)cc1` [Compound 4l, 2-(3,4-Dihydroxyphenyl)-5,7-dihydroxy-4-oxo-4H-chromen-3-yl 4-aminobenzoate], the melting point (commonly the temperature, or range, at which the solid turns liquid) was in the range of 233 to 234 °C. In data set [3], the EC50 (commonly the midpoint of the concentration-response curve) stood at 23.8 ± 0.8 µM and the “SI (selectivity index)” value is given as greater than 2.1. Besides, in data set [4], the CC50 (commonly the concentration that lowers cell viability or growth by half) is greater than 50 µM.
`O=c1c(O)c(-c2ccc(O)c(O)c2)oc2cc(OCc3ccc(F)cc3)cc(O)c12` [Compound 3n, 2-(3,4-Dihydroxyphenyl)-7-((4-fluorobenzyl)oxy)-3,5-dihydroxy-4H-chromen-4-one] displayed a melting point of 254 to 255 °C. In data set [3], a half-maximal response (EC50) required 5.1 ± 0.5 µM and the “SI (selectivity index)” value is given as 6.2. The compound also yielded a CC50 in data set [4] of 31.9 ± 3.4 µM.
The like results for `O=c1c(O)c(-c2ccc(O)c(O)c2)oc2cc(OCc3ccc(Cl)cc3)cc(O)c12` [Compound 3o, 7-((4-Chlorobenzyl)oxy)-2-(3,4-dihydroxyphenyl)-3,5-dihydroxy-4H-chromen-4-one] were, in that order, 266 to 267 °C, 3.9 ± 0.3 µM, 3.9 and 15.1 ± 0.1 µM.
The compound `O=c1c(O)c(-c2ccc(O)c(O)c2)oc2cc(OCc3cccc(Cl)c3)cc(O)c12` [Compound 3i, 7-((3-Chlorobenzyl)oxy)-2-(3,4-dihydroxyphenyl)-3,5-dihydroxy-4H-chromen-4-one] displayed a melting point of 260 to 261 °C. In addition, in data set [3], the midpoint of the response, the EC50, lay at 3.8 ± 0.2 µM and the “SI (selectivity index)” value is reported as 7.2. This compound also gave a half-maximal cytotoxic concentration (CC50) in data set [4] of 27.2 ± 0.2 µM.
The corresponding values for `Cc1ccc(COc2cc(O)c3c(=O)c(O)c(-c4ccc(O)c(O)c4)oc3c2)cc1` [Compound 3q, 2-(3,4-Dihydroxyphenyl)-3,5-dihydroxy-7-((4-methylbenzyl)oxy)-4H-chromen-4-one] are 261 to 264 °C, 6.7 ± 1.4 µM, 2.4 and 15.9 ± 1 µM.
The compound `O=C(Oc1c(-c2ccc(O)c(O)c2)oc2cc(O)cc(O)c2c1=O)c1ccccc1` [Compound 4a, 2-(3,4-Dihydroxyphenyl)-5,7-dihydroxy-4-oxo-4H-chromen-3-yl benzoate] registered a melting point of 173 to 174 °C. Besides, in data set [3], the response was half-maximal at 14.3 ± 5.1 µM (EC50) and the “SI (selectivity index)” value is listed as greater than 3.5. Also, in data set [4], the CC50 is greater than 50 µM.
The like results for `O=c1c(O)c(-c2ccc(O)c(O)c2)oc2cc(OCc3ccc([N+](=O)[O-])cc3)cc(O)c12` [Compound 3s, 2-(3,4-Dihydroxyphenyl)-3,5-dihydroxy-7-((4-nitrobenzyl)oxy)-4H-chromen-4-one] were, in that order, 253.5 to 254.5 °C, 4.3 ± 0.2 µM, 4.5 and 19.6 ± 0.2 µM.
The corresponding values for `N#Cc1ccc(C(=O)Oc2c(-c3ccc(O)c(O)c3)oc3cc(O)cc(O)c3c2=O)cc1` [Compound 4n, 2-(3,4-Dihydroxyphenyl)-5,7-dihydroxy-4-oxo-4H-chromen-3-yl 4-cyanobenzoate] are 196 to 197 °C, 11.4 ± 2.3 µM, greater than 4.4 and greater than 50 µM.
The like results for `Nc1cccc(C(=O)Oc2c(-c3ccc(O)c(O)c3)oc3cc(O)cc(O)c3c2=O)c1` [Compound 4g, 2-(3,4-Dihydroxyphenyl)-5,7-dihydroxy-4-oxo-4H-chromen-3-yl 3-aminobenzoate] were, in that order, 216 to 217 °C, 21.1 ± 1.3 µM, greater than 2.4 and greater than 50 µM.
`COc1ccccc1C(=O)Oc1c(-c2ccc(O)c(O)c2)oc2cc(O)cc(O)c2c1=O` [Compound 4d, 2-(3,4-Dihydroxyphenyl)-5,7-dihydroxy-4-oxo-4H-chromen-3-yl 2-methoxybenzoate] registered a melting point of 183 to 184 °C. Further, in data set [3], the EC50 was determined as 11.7 ± 1.3 µM and the “SI (selectivity index)” value is on record as greater than 4.3. The compound further had a CC50 in data set [4] greater than 50 µM.
The like results for `COc1ccc(C(=O)Oc2c(-c3ccc(O)c(O)c3)oc3cc(O)cc(O)c3c2=O)cc1` [Compound 4m, 2-(3,4-Dihydroxyphenyl)-5,7-dihydroxy-4-oxo-4H-chromen-3-yl 4-methoxybenzoate] were, in that order, 194 to 195 °C, 13.6 ± 2.1 µM, 2.5 and 33.9 ± 3.7 µM.
The corresponding values for `CC(C)Oc1c(-c2ccc(O)c(O)c2)oc2cc(O)cc(O)c2c1=O` [Compound 12b, 2-(3,4-Dihydroxyphenyl)-5,7-dihydroxy-3-isopropoxy-4H-chromen-4-one] are 259 to 262 °C, 38.9 ± 2.5 µM, 0.7 and 28.8 ± 2 µM.
Regarding meconic acid [Compound 1c], in data set [2], the IC50 is 2.3 µM.
As to `O=C(O)/C(O)=C/C(=O)c1ccccc1` [Compound 1a], the IC50 in data set [2] was 5.7 µM.
In the case of `O=C(O)c1nc(-c2cccs2)nc(O)c1O` [Compound 1d, dihydroxypyrimidine carboxylic acid], the 50% inhibitory concentration (IC50) in data set [2] was 2.6 µM.
`Nc1ccccc1C(=O)Oc1c(-c2ccc(O)c(O)c2)oc2cc(O)cc(O)c2c1=O` [Compound 4c, 2-(3,4-Dihydroxyphenyl)-5,7-dihydroxy-4-oxo-4H-chromen-3-yl 2-aminobenzoate] gave a melting point of 198 to 199 °C. In data set [3], a half-maximal response (EC50) required 12.8 ± 2.8 µM and the “SI (selectivity index)” value is on record as greater than 3.9. The CC50 in data set [4] (Huh7.5.1 cells, MTT, concentration required to reduce cell proliferation by 50%, average of duplicate determinations, read-out: CC50) was greater than 50 µM.
`O=c1c(O)c(-c2ccc(O)c(O)c2)oc2cc(OCc3ccccc3F)cc(O)c12` [Compound 3b, 2-(3,4-Dihydroxyphenyl)-7-((2-fluorobenzyl)oxy)-3,5-dihydroxy-4H-chromen-4-one]: the melting point was 254 to 255 °C. In data set [3], the EC50 was 5 ± 0.1 µM and the “SI (selectivity index)” value came out at 3.1. In data set [4], this compound yielded a CC50 of 15.4 ± 0.1 µM.
The like results for `O=c1c(O)c(-c2ccc(O)c(O)c2)oc2cc(OCc3ccccc3)cc(O)c12` [Compound 3a, 7-(Benzyloxy)-2-(3,4-dihydroxyphenyl)-3,5-dihydroxy-4H-chromen-4-one] were, in that order, 255 to 257 °C, 8.7 ± 0.2 µM, greater than 5.8 and greater than 50 µM.
Turning to `N#CCCCOc1c(-c2ccc(O)c(O)c2)oc2cc(O)cc(O)c2c1=O` [Compound 12d, 4-(2-(3,4-Dihydroxyphenyl)-5,7-dihydroxy-4-oxo-4H-chromen-3-yloxy)butanenitrile], the melting point fell in the range of 169 to 171 °C. Also, the EC50 in data set [3] is greater than 50 µM. For the same compound, the CC50 in data set [4] was greater than 50 µM.
Take `O=c1c(O)c(-c2ccc(O)c(O)c2)oc2cc(OCc3ccc(Br)cc3)cc(O)c12` [Compound 3p, 7-((4-Bromobenzyl)oxy)-2-(3,4-dihydroxyphenyl)-3,5-dihydroxy-4H-chromen-4-one]: the melting point is 256 to 257 °C. Further, in data set [3], the midpoint of the response, the EC50, lay at 5.5 ± 1.5 µM and the “SI (selectivity index)” value is on record as 6.4. Further, the CC50 in data set [4] came to 35.4 ± 1.6 µM.
As for `O=C(Oc1c(-c2ccc(O)c(O)c2)oc2cc(O)cc(O)c2c1=O)c1cccc(Cl)c1` [Compound 4j, 2-(3,4-Dihydroxyphenyl)-5,7-dihydroxy-4-oxo-4H-chromen-3-yl 3-chlorobenzoate], the melting point is greater than 300 °C. For the same compound, the concentration for a half-maximal effect (EC50) in data set [3] was found to be 23 ± 3.2 µM. The compound further showed a CC50 in data set [4] greater than 50 µM.

The values are drawn from publication PMC6272327, “Discovery of Metal Ions Chelator Quercetin Derivatives with Potent Anti-HCV Activities” (Molecules, 2015).
